The values that follow are results of earlier work, collected in patent US20130204238A1, “COMBINATION THERAPY” (FOLLICA, INC, priority 2010, published 2013).

This data set has as its target GSK3β (Homo sapiens, UniProt P49841). As to conditions: compared with other indirubin derivatives.

Chain of GSK3β (P49841 whole entry, species assumed): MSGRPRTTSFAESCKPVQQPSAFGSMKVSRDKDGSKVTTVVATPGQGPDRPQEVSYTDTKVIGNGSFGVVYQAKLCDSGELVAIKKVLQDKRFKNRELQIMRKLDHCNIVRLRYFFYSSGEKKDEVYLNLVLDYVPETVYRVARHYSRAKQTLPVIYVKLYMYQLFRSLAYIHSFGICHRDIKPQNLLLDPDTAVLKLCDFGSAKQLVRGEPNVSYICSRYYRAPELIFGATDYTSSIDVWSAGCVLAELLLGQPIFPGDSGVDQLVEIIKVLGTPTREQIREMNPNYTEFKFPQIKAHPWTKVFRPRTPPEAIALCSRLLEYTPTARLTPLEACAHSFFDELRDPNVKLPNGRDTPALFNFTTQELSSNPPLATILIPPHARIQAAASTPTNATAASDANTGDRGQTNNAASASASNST

For the compound `O=C1Nc2ccc(Cl)cc2/C1=C1/Nc2ccccc2C1=O` [5-chloroindirubin], the pharmacological properties entry is on record as “better pharmacological properties” and the toxicity entry is recorded as “reduced toxicity”.
On to indirubin 3′-monoxime, for which the pharmacological properties result is given as “better pharmacological properties”.
